Read-outs that look alike come from different tables or passages of the source.
Key:
[1] = system: adult glioblastoma multiforme (GBM); parameters: method as in ref 3 (Mir et al.); conditions: combining radiation therapy with adavosertib; ref 3 (Mir et al.); cited from earlier work
γH2AX in tumor tissue = system: γH2AX in tumor tissue; parameters: method as in our preclinical studies; conditions: treated mice compared to control animals; ref our preclinical studies; cited from earlier work
[2] = cited from earlier work
[3] = cited from earlier work; remark: listed apart in the source
clinical = conditions: human, in vivo
Method: Pharmacokinetic parameters were calculated using noncompartmental methods[20] using Phoenix® WinNonlin® Version 8.1 (WinNonlin version 8.1.03530, Pheonix 64; Pharsight Corporation, Mountain View, CA). […] Oral steady-state clearance (ClSS/F) was calculated using the equation, ClSS = Dose/AUCτ.

Compound: C=CCn1c(=O)c2cnc(Nc3ccc(N4CCN(C)CC4)cc3)nc2n1-c1cccc(C(C)(C)O)n1 [adavosertib]
- Survival in orthotopic GBM models [1]: significantly improved survival
- γH2AX expression in tumor tissue (γH2AX in tumor tissue): increased expression of γH2AX
- Elimination half-life (t1/2) ([2]; adult patients): 9 to 11 h
- Tmax ([2]; adult patients): 4 h
- Mean oral clearance ([2]; fasting adults, ref a recent report of a food-effect study): 40.85 L/h
- BSA-adjusted plasma clearance ([3]; earlier pediatric COG study): 32.5 L/hr/m^2
- MTD of adavosertib ([3]; in combination with irinotecan 90 mg/m^2/dose, orally daily for 5 days on a 21 day cycle): 85 mg/m^2/dose
- Dose dependence of Cmax and AUC (clinical): appeared to increase in proportion to dose
- Median BSA-adjusted plasma clearance (clinical): 45.2 L/hr/m^2
- Median half-life (clinical): 4.4 h
- half-life (clinical): 4.4 h
- AUC (clinical; 50 mg/m2): 2.45 ± 1.04 µM·h
- AUC0-8h (clinical; 50 mg/m2): 1.42 ± 0.438 µM·h
- AUC(0-inf) (clinical; 50 mg/m2): 2.22 ± 0.8 µM·h
- CLss (steady-state clearance) (clinical; 50 mg/m2): 47.9 ± 23.2 L/hr/m^2
- Cmax (clinical; 50 mg/m2): 356 ± 109 nM
- Tmax (clinical; 50 mg/m2): 1.9 ± 0.9 h
- half-life (clinical; 50 mg/m2): 4.2 ± 1.3 h
- AUC(0-t) (clinical; 50 mg/m2, AUC0-8h): 1.65 ± 0.654 µM·h
- Cmax (clinical; 50 mg/m2, Cmax): 422 ± 170 nM
- Tmax (clinical; 50 mg/m2, Tmax): 1.9 ± 0.9 h
- AUC (clinical; 95 mg/m2): 5.74 ± 2.72 µM·h
- AUC0-8h (clinical; 95 mg/m2): 3.362 ± 0.85 µM·h
- AUC(0-inf) (clinical; 95 mg/m2): 6.03 ± 1.98 µM·h
- CLss (steady-state clearance) (clinical; 95 mg/m2): 39.2 ± 17.2 L/hr/m^2
- Cmax (clinical; 95 mg/m2): 869 ± 235 nM
- Tmax (clinical; 95 mg/m2): 1.8 ± 0.4 h
- half-life (clinical; 95 mg/m2): 4.5 ± 1.2 h
- AUC(0-t) (clinical; 95 mg/m2, AUC0-8h): 4.01 ± 1.81 µM·h
- Cmax (clinical; 95 mg/m2, Cmax): 933 ± 351 nM
- Tmax (clinical; 95 mg/m2, Tmax): 1.9 ± 0.5 h
- AUC (clinical; 130 mg/m2): 7.21 ± 2.76 µM·h
- AUC0-8h (clinical; 130 mg/m2): 3.731 ± 1.583 µM·h
- AUC(0-inf) (clinical; 130 mg/m2): 5.87 ± 2.26 µM·h
- CLss (steady-state clearance) (clinical; 130 mg/m2): 41.6 ± 19.8 L/hr/m^2
- Cmax (clinical; 130 mg/m2): 821 ± 410 nM
- half-life (clinical; 130 mg/m2): 4.1 ± 0.5 h
- AUC(0-t) (clinical; 130 mg/m2, AUC0-8h): 4.48 ± 1.77 µM·h
- Cmax (clinical; 130 mg/m2, Cmax): 994 ± 467 nM
- Tmax (clinical; 130 mg/m2, Tmax): 2.3 ± 0.8 h
- AUC (clinical; 160 mg/m2): 12.8 ± 1.8 µM·h
- AUC0-8h (clinical; 160 mg/m2): 6.689 ± 2.738 µM·h
- AUC(0-inf) (clinical; 160 mg/m2): 11.4 ± 3.73 µM·h
- CLss (steady-state clearance) (clinical; 160 mg/m2): 25.6 ± 3.3 (n* = 4) L/hr/m^2
- Cmax (clinical; 160 mg/m2): 1270 ± 705 nM
- half-life (clinical; 160 mg/m2): 4.8 ± 1 h
- AUC(0-t) (clinical; 160 mg/m2, AUC0-8h): 8.47 ± 2.36 µM·h
- Cmax (clinical; 160 mg/m2, Cmax): 1690 ± 670 nM
- Tmax (clinical; 160 mg/m2, Tmax): 2.2 ± 1.1 h
- AUC (clinical; 200 mg/m2): 16.4 ± 7.76 µM·h
- AUC0-8h (clinical; 200 mg/m2): 6.904 ± 2.758 µM·h
- AUC(0-inf) (clinical; 200 mg/m2): 12.2 ± 1.7 µM·h
- CLss (steady-state clearance) (clinical; 200 mg/m2): 33.4 ± 25.8 L/hr/m^2

From PMC9209747 (Neuro-oncology Advances, 2022)
